Experimental findings from ChEMBL document CHEMBL2440115, “Discovery and characterization of synthetic 4'-hydroxyflavones-New CK2 inhibitors from flavone family” (Bioorg Med Chem, 2013) are described below.

Structures are written as SMILES. Some results are limits rather than exact numbers.

One assay addresses Casein kinase II (Homo sapiens, UniProt P19784+P67870+P68400). Description: Inhibition of recombinant human CK2 using RRRDDDSDDD as substrate after 20 mins by beta counting analysis in presence of [gamma-labeled 32P]ATP. It counts as protein-complex assay.
The target in assay [1] is Casein kinase II (Homo sapiens) (UniProt P67870+P68400+P19784). Description: Inhibition of recombinant human CK2 using RRRDDDSDDD as substrate assessed as residual activity at 10 uM after 20 mins by beta counting analysis in presence of [gamma-labeled 32P]ATP relative to control. It counts as protein-complex assay.

Chain of Casein kinase II (P67870 whole entry): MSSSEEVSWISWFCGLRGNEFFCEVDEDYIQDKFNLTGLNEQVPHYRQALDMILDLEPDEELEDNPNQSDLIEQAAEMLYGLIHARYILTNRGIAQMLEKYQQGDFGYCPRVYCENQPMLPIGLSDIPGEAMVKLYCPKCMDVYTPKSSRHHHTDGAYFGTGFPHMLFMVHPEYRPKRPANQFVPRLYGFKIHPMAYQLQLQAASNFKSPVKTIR
Chain of Casein kinase II (P68400 whole entry): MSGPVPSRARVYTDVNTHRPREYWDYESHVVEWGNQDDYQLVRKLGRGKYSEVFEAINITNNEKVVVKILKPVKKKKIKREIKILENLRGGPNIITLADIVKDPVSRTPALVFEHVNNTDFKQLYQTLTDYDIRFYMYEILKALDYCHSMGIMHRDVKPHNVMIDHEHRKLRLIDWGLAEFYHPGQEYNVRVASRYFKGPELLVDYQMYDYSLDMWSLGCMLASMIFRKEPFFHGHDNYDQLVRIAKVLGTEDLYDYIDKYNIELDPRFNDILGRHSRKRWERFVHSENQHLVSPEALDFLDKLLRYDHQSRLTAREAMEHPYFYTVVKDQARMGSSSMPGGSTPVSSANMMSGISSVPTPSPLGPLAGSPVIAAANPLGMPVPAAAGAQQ
Chain of Casein kinase II (P19784 whole entry): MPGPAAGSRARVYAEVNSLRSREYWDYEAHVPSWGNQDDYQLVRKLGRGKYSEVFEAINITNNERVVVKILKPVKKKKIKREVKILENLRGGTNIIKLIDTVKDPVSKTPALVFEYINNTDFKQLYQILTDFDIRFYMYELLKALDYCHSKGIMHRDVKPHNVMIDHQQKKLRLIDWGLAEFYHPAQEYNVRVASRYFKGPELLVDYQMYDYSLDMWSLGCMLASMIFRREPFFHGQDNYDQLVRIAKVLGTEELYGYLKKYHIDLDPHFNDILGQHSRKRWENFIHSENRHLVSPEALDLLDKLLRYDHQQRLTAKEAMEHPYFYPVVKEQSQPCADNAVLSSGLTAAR

For `COc1cc(-c2cc(=O)c3cc(Cl)c(C)cc3o2)ccc1O`, the 50% inhibitory concentration (IC50) at Casein kinase II was determined as 790 nM.
With `COc1cc(-c2cc(=O)c3c(C)c(Cl)c(C)cc3o2)ccc1O`, at Casein kinase II, the IC50 worked out at 2000 nM.
Still for that read-out and setting: the result for `COc1cc(-c2cc(=O)c3ccc4ccccc4c3o2)cc(Cl)c1O` reads 87 nM.
Turning to `COc1ccc(-c2cc(=O)c3cc(C)cc(C)c3o2)cc1OC`, in assay [1], the Activity was 87%. In addition, at Casein kinase II, the IC50 is more than 30000 nM.
For `COc1cc(-c2cc(=O)c3cc(C)ccc3o2)ccc1O`, on Casein kinase II, the half-inhibitory concentration (IC50) amounted to 320 nM.
`Cc1ccc(-c2cc(=O)c3cc(O)ccc3o2)cc1`: the Activity in assay [1] stood at 35%. Besides, on Casein kinase II, the 50% inhibitory concentration (IC50) worked out at 19000 nM.
Consider `COc1cc(-c2cc(=O)c3cc(Br)ccc3o2)ccc1O`, for which the IC50 at Casein kinase II came out at 120 nM.
On to `COc1ccc(-c2cc(=O)c3c4c(ccc3o2)OCN(c2cccc(C(F)(F)F)c2)C4)cc1`, for which the Activity in assay [1] worked out at 18%. At Casein kinase II, the IC50 is 15000 nM.
On to `Cc1ccc(-c2cc(=O)c3cc(C)cc(C)c3o2)cc1`, for which, in assay [1], the Activity is 35%. Further, the IC50 at Casein kinase II came to 21000 nM.
`CCOc1ccc(-c2oc3ccc(C)cc3c(=O)c2O)cc1`: the Activity in assay [1] worked out at 57%. In addition, the half-inhibitory concentration (IC50) on Casein kinase II is more than 30000 nM.
Take `CCc1ccc2oc(-c3ccc(O)c(OC)c3)cc(=O)c2c1`: on Casein kinase II, the IC50 stood at 120 nM.
On the same count and under the same terms, the result for `COc1ccc(-c2cc(=O)c3cc(C)cc(C)c3o2)cc1O` reads more than 30000 nM.
For the compound `Cc1cc(C)c2oc(-c3ccc(O)cc3)cc(=O)c2c1`, the concentration for half-maximal inhibition (IC50) at Casein kinase II stood at 1600 nM.
Turning to `COc1cc(-c2cc(=O)c3cc(C)cc(C)c3o2)cc(Cl)c1O`, the half-maximal inhibitory concentration (IC50) at Casein kinase II is 90 nM.
For the compound `COc1cc(-c2cc(=O)c3ccccc3o2)ccc1O`, the Activity in assay [1] turned out to be 5%. For the same compound, the concentration for half-maximal inhibition (IC50) at Casein kinase II was found to be 800 nM.
The matching figures for `Cc1cc(C)c2c(=O)cc(-c3ccc(N(C)C)cc3)oc2c1`: 58% and more than 30000 nM.
The like results for `COc1ccc(-c2oc3c(C)cc(C)cc3c(=O)c2OS(C)(=O)=O)cc1` were, in that order, 46% and 28000 nM.
The like results for `COc1ccc(-c2cc(=O)c3c(CN4CCOCC4)c(O)ccc3o2)cc1` were, in that order, 79% and more than 30000 nM.
With `COc1cc(-c2cc(=O)c3cc(C)cc(C)c3o2)cc(Br)c1O`, the IC50 on Casein kinase II was found to be 650 nM.
With `COc1cc(-c2cc(=O)c3ccc(C)c(C)c3o2)ccc1O`, on Casein kinase II, the concentration for half-maximal inhibition (IC50) was found to be 300 nM.
On the same count and under the same terms, with `Cc1cc(C)c2oc(-c3cc(Br)c(O)c(Br)c3)cc(=O)c2c1` the figure was 180 nM.
`COc1ccc2c(=O)cc(-c3ccc(O)c(OC)c3)oc2c1`: the IC50 at Casein kinase II was 175 nM.
Still for that read-out and setting: with `COc1ccc2oc(-c3ccc(O)c(OC)c3)cc(=O)c2c1` the figure was 200 nM; with `Cc1cc(C)c2oc(-c3ccc(O)c(O)c3)cc(=O)c2c1`, 450 nM; with `COc1cc(-c2cc(=O)c3cc(Cl)cc(Cl)c3o2)cc(Cl)c1O`, 20 nM.
The same measure, in the same setting: the result for `COc1cccc(-c2cc(=O)c3cc(C)cc(C)c3o2)c1O` reads more than 30000 nM; that for `Cc1cc(C)c2oc(-c3ccc(O)c(Br)c3)cc(=O)c2c1`, 50 nM; that for `Cc1cc(C)c2oc(-c3cccc(O)c3)cc(=O)c2c1`, 2200 nM.
Same read-out and setting: the result for `COc1cc(-c2cc(=O)c3ccc4ccccc4c3o2)ccc1O` reads 28 nM; that for `COc1cc(-c2cc(=O)c3cc(Cl)ccc3o2)ccc1O`, 240 nM; that for `Cc1ccc2oc(-c3ccc(O)cc3)cc(=O)c2c1`, 8000 nM.
For `COc1cc(-c2cc(=O)c3cc(NC(C)=O)ccc3o2)ccc1O`, the IC50 on Casein kinase II was 150 nM.
Still for that read-out and setting: with `Cc1cc(C)c2oc(-c3cc(Cl)c(O)c(Cl)c3)cc(=O)c2c1` the figure was 78 nM; with `COc1cc(-c2cc(=O)c3cc(C)cc(C)c3o2)cc([N+](=O)[O-])c1O`, 66 nM.
Same read-out and setting: the result for `COc1cc(-c2cc(=O)c3cc(C)c(C)cc3o2)ccc1O` reads 3000 nM; that for `COc1cc(-c2cc(=O)c3c(C)cc(C)cc3o2)ccc1O`, 30 nM; that for `COc1cc(-c2cc(=O)c3ccc(C)cc3o2)ccc1O`, 90 nM.
Still for that read-out and setting: the result for `Cc1cc(C)c2oc(-c3ccc(O)c([N+](=O)[O-])c3)cc(=O)c2c1` reads 12 nM.
